Reference: patent publication US20260125679A1, “FINE-TUNING INFLAMMATION BY ALTERING 3'UTR LENGTH” (priority 2023, published 2026)
Numbered stars: 1 amine (or outer) side, 2 acyl side, 3 side chain; on linkers, the order of the positions; unused ones are H or OH. Bridge positions count the residues as written; N and C are the ends. Square brackets hold non-standard residues; d marks the D form. Peptide text beside a SMILES is read from it. I, II: the chains in the order shown. Actinocin(9to1) = Cc1c2oc3c(C)ccc(C(=O)[*:1])c3nc-2c(C(=O)[*:2])c(N)c1=O; NMeV = CN[C@H](C(=O)O)C(C)C; Sar = CNCC(=O)O

Tests used:
neurons and hESCs = experiment: Specificity of RNA polymerase inhibitors (mRNA and mtRNA levels); assay type: cell-based, human; settings: 12 hours treatment
Protocol: (§1) We transiently treated neurons with different RNA polymerase inhibitors for 12 hours prior to J2 staining to determine if RNA polymerase II (POLII) or mitochondrial RNA polymerase (POLRMT) give rise to neuronal dsRNA. The following inhibitors were used: actinomycin D (ActD), which inhibits both POLII and POLRMT (16); α-amanitin, a POLII inhibitor; and IMT1, a POLRMT-specific inhibitor (25). […] By quantifying depletion of dsRNA upon single treatments with α-amanitin or IMT1 treatment, we calculated the proportional contribution of POLII- or POLRMT-derived dsRNAs, respectively. We applied this analysis to various cell types. In HeLa cells, roughly 90% of dsRNA was derived from POLRMT. This is consistent with a prior study that concluded that roughly 95% of dsRNA in HeLa cells is located in mitochondria (16), validating our analysis. In both hESCs and HEK-293T cells, POLRMT and POLII contribute to roughly 70% and 30% of dsRNA, respectively. Conversely, in neurons, POLRMT and POLII transcripts contribute to 40% and 60% of dsRNA, respectively. […] In summary, mtRNA is the major component of dsRNA in HeLa, HEK-293T, and hESCs. However, in neurons, POLII-derived transcripts, presumably mRNAs, contribute to the bulk of the neuronal dsRNA load.
(§2) For treatment with various polymerase inhibitors, cells were treated for 12 hours prior to harvest with either ActD (10 ug/mL, Sigma), α-amanitin (25 ug/mL, Sigma), or IMT1 (1 uM, MedChemExpress).
RNA was extracted directly from cell samples using the Direct-zol RNA Miniprep kit (Zymo Research). cDNA conversion was completed using the ProtoScript II First Strand cDNA Synthesis kit (New England Biolabs). PowerUp SYBR Green (Thermo Fisher Scientific) and QuantStudio 3 Real-Time PCR System were used for qRT-PCR, and all primers are listed in Table S1. RPS11 or 18S rRNA were used as a housekeeping gene for normalization.

[1] = system: dsRNA in neurons, hESCs, HEK-293T and HeLa cells; experiment: J2 staining of dsRNA after RNA polymerase inhibitor treatment; assay type: cell-based, human
Protocol: as §1, §2
Cells grown on glass coverslips were washed with PBS and fixed using 4% paraformaldehyde for 20 minutes at 4° C. Samples were then blocked and permeabilized in PBTG (PBS, 1% BSA, 0.1% Triton-X100, 10% goat serum) for 1 hour at room temperature. Primary antibodies were diluted in PBTG and stained overnight at 4° C. Secondary antibodies (either goat anti-mouse IgG Alexa Fluor 488 or goat anti-rabbit IgG Alexa Fluor 594, Invitrogen (A11001 and A11012)) and DAPI were diluted in PBTG and stained for 1 hour at room temperature prior to mounting. Samples were imaged on an LSM-710 confocal microscope.
Images were processed and analyzed using ImageJ. MFI of individual cells was determined by tracing cell outlines. MFI data depicts 12 individual cells taken from at least 3 independent images. For colocalization analysis, the JACop plugin was used to measure MFI of 4 independent images.

Structure (SMILES) | mRNA levels (neurons and hESCs) | proportion of dsRNA derived from POLII (depletion of dsRNA upon α-amanitin) ([1]; hESCs and HEK-293T cells) | proportion of dsRNA derived from POLII (depletion of dsRNA upon α-amanitin) ([1]; neurons) | mtRNA levels (neurons and hESCs) | dsRNA signal (J2) ([1]; neurons and hESCs, 12 hours treatment) | proportion of dsRNA derived from POLRMT (depletion of dsRNA upon IMT1) ([1]; HeLa cells) | proportion of dsRNA derived from POLRMT (depletion of dsRNA upon IMT1) ([1]; hESCs and HEK-293T cells) | proportion of dsRNA derived from POLRMT (depletion of dsRNA upon IMT1) ([1]; neurons)
CC[C@H](C)[C@@H]1NC(=O)CNC(=O)[C@@H]2Cc3c([nH]c4cc(O)ccc34)[S+]([O-])C[C@@H](NC(=O)CNC1=O)C(=O)N[C@@H](CC(N)=O)C(=O)N1C[C@H](O)C[C@H]1C(=O)N[C@@H]([C@@H](C)[C@@H](O)CO)C(=O)N2 (stereo in doubt) [α-amanitin] | down-regulated | ~30% | 60% |  |  |  |  | 
Cc1c2oc3c(C)ccc(C(=O)N[C@@H]4C(=O)N[C@H](C(C)C)C(=O)N5CCC[C@H]5C(=O)N(C)CC(=O)N(C)[C@@H](C(C)C)C(=O)O[C@@H]4C)c3nc-2c(C(=O)N[C@@H]2C(=O)N[C@H](C(C)C)C(=O)N3CCC[C@H]3C(=O)N(C)CC(=O)N(C)[C@@H](C(C)C)C(=O)O[C@@H]2C)c(N)c1=O [ActD, actinomycin D] (I: T[dV]P[Sar][NMeV] / II: T[dV]P[Sar][NMeV]; ester I:1-I:C, II:1-II:C; linker I:N-II:N via Actinocin(9to1)) | down-regulated |  |  | down-regulated | abrogate almost all dsRNA signal |  |  | 
Cc1ccccc1-c1cc(=O)oc2cc(OC(C)C(=O)N(C)C)ccc12 (stereo not shown) [IMT1] |  |  |  | down-regulated |  | roughly 90% | roughly 70% | 40%
